Reference: US4233309A, “Novel 1-substituted-3-acylpyrrole derivatives, platelet aggregation inhibitors containing them, as active ingredients, and processes for production of said derivatives” (Teijin Limited, priority 1977, dated 1980)
Converted amounts (≈) assume the structure as drawn.

Test system: platelet aggregation (platelet-rich plasmas (PRP) of guinea pigs)
Test: Activity of inhibiting platelet aggregation in vitro, guinea pig PRP, sodium arachidonate as aggregating agent (Table 1)
Type: cell-based, Hartley-strain male guinea pigs
Conditions: Cavia porcellus, sodium arachidonate 0.03 mM final, 37° C., final concentration, read-out: IC50 (minimum concentration of drug which showed a percent inhibition of more than 50%)
Procedure: Some 1-substituted-3-acylpyrrole derivatives and other drugs were tested for platelet aggregation inhibiting activities in vitro using platelet-rich plasmas (PRP) of man and guinea pigs. The results are shown as minimum concentration of drugs which inhibit more than 50% of platelet aggregation induced by several aggregating agents.
In experiments with PRP of guinea pigs, sodium arachidonate (final concentration 0.03 mM) was used as an aggregating agent. In experiments with human PRP, sodium arachidonate (final concentration 0.1 mM), collagan suspension (final concentration 10 μg/ml), epinephrine solution (final concentration 20 μg/ml; for secondary aggregation), an epinephrine solution (final concentration 2 μg/ml; for primary aggregation) and ADP (final concentration 5 μM) were used as aggregating agents.
In an experiment with guinea pig PRP, citrated blood (containing 0.38% sodium citrate as a final concentration) was withdrawn by cardiac puncture from Hartley-strain male guinea pigs having a body weight of 350 to 600 g. The citrated blood was centrifuged at 1,000 rpm for 10 minutes at room temperature, and the supernatant platelet suspension (PRP) was separated.
The PRP was stored at room temperature, and used as soon as possible. Those which had been stored for more than 4 hours after preparation were not used.
For each test, a drug is dissolved in dimethylsulfoxide to a concentration of 10 mg/ml, and diluted with physiological saline to form 1 ml each of solutions having a concentration of 2500 μg/ml, 1000 μg/ml, 750 μg/ml, 500 μg/ml, 250 μg/ml and 100 μg/ml. A compound having a free carboxylic acid as a residue such as indomethacine and Ibprofen was dissolved in 0.1 M NaHCO3 to form a sodium salt solution having a concentration of 10 mg/ml. Then, the solution was diluted with physiological saline in the same way as above to form a test drug solution.
Arachidonic acid (99% pure, a product of Sigma Co., Ltd.) was dissolved in 0.1 M NaHCO3, and a 3.3 mM solution of sodium arachidonate was prepared. The solution was diluted with physiological saline to a concentration of 1 mM and used in the experiments. The 3.3 mM solution was stored in a refrigerator as a stock solution, and the 1 mM solution was newly prepared from the stock solution every time it was used.
Physiological saline (50 μl) and 50 μl of the aggregating agent solution were added to 400 μl of PRP which had been pre-warmed and stirred at 37° C. in a quvett set in a holder of an aggregometer. Platelet aggregation was thus initiated, and the change of light transmittance through a stirred platelet suspension was recorded for 3 minutes by a recorder joined to the aggregometer. An increase in transmittance after 3 minutes (T0) was used as a parameter of the rate of platelet aggregation in control experiments.
To 400 μl of PRP in a quvett was added 50 μl of a test drug solution. The mixture was pre-incubated and stirred for 2 minutes at 37° C. Then 50 μl of the aggregating agent was added to drug containing PRP and again aggregation responses were recorded as increases in light transmittance after 3 minutes (T1) in the same way as in (1) above. Percent inhibition was calculated from the formula [formula]
For the above in vitro test for the inhibition of platelet aggregation, reference may be had to H. M. Davis, J. Phyllis, K. Paul and W. Terry: Thromb. Res. 11, 217-226 (1977) and R. E. Anderson and J. G. Foulks: Thromb. Haemos. 36, 343-359 (1976).

## Cc1cc(C(=O)c2ccccc2)c(C)n1CC(C)O (stereo not shown) [Compound 102, 2-(3-benzoyl-2,5-dimethylpyrrol-1-yl)-1-methylethanol]
  IC50: 5 µg/mL (≈ 19.4 µM)
